Converted amounts (≈) assume the structure as drawn. Like-named read-outs stand apart in the source and are kept apart here.
What was measured:
Type in all cases: cell-based
[1] = tested on: Botrytis cinerea mutant V195F; assay: Activity against Botrytis cinerea in the microtiter test, mutant V195F; details: for IC50: Botrytis cinerea, MUTANTV195F, 168 h, read-out: Absolute IC50, V195F, Botrytis cinerea mutant V195F, turbidity at 620 nm after 7 days
From the text: (§1) The active substances were formulated separately as a stock solution in dimethyl sulfoxide (DMSO) at a concentration of 10 000 ppm.
(§2) Spontaneous mutants were selected by plating out B. cinerea spores (in the range of 10^7-10^8) on DOB agar plates (3.4 g/l YNB (Becton Dickinson), 10 g/l Ammoniumsulfat, 40 g/l Glucose, 20 g/l Agar), amended with different lethal concentrations of active ingredient. After 7-14 days growing colonies were transferred to DOB agar plates, amended with the same lethal concentrations of active ingredient and then further propagated on Oatmeal agar medium (50 g/l Oatmeal agar (Sigma), 15 g/l Agar (Difco) for sensitivity testing.
(§3) Fungal strains used: • a) Botrytis cinerea (sensitive, wild-type) • b) Various mutants of Botrytis cinerea
(§4) The spores of Botrytis cinerea were harvested with a cotton swab from an Oatmeal agar plate (50 g/l Oatmealagar (Sigma, Art.O-3506), 15 g/l agar, (Difco) and this is dipped in 3 ml of double concentrated DOB-medium (3.4 g/l YNB (Becton Dickinson), 10 g/l Ammoniumsulfat, 40 g/l Glucose, adjusted to pH 7) and the spore suspension is adjusted to a spore density of 3.2×10^4 spores/ml. The compound solutions were diluted from stock solution in (dimethylsulfoxide) DMSO in several steps with sterile deionized water before use. High test concentrations were 50 mg/L (ppm) or 31 mg/L (ppm). Compound solutions were transferred into empty microplates and filled up with an equal amount of spore suspension.
(§5) The antifungal activity was determined by measuring the turbidity of a culture in 96-well microplates in the presence of test compounds after 7 days incubation at 620 nm. A blank value for each concentration (growth media+compound, without spores) are subtracted from the spore suspension. The relative antifungal activity was calculated by comparing the effect of the test compounds with the effect of a DMSO control The results are shown in Table IV (for compounds of general formula I.A), VI (for compounds of general formula I.B), and VIII (for compounds of general formula I.C).
(§6) A compound showing an IC50 (MUT) above the IC50 (WT) and showing an IC50 (MUT) to IC50 (WT) ratio being in a range above 100 is considered unsuitable (“I”) as DHODH inhibitor.
(§7) The absolute IC50-values (concentration of test compound resulting in 50% inhibition of fungal growth) were calculated from the resulting dose-response for each compound and strain.

[2] = tested on: Botrytis cinerea mutant G111V; assay: Activity against Botrytis cinerea in the microtiter test, mutant G111V; details: for IC50: Botrytis cinerea, MUTANTG111V, 168 h, read-out: Absolute IC50, G111V, Botrytis cinerea mutant G111V, turbidity at 620 nm after 7 days
From the text: as §1, §2, §3, §4, §5, §6, §7

[3] = tested on: Botrytis cinerea mutant G111E; assay: Activity against Botrytis cinerea in the microtiter test, mutant G111E; details: for IC50: Botrytis cinerea, MUTANTG111E, 168 h, read-out: Absolute IC50, G111E, Botrytis cinerea mutant G111E, turbidity at 620 nm after 7 days
From the text: as §1, §2, §3, §4, §5, §6, §7

[4] = tested on: Botrytis cinerea (sensitive, wild-type); assay: Activity against Botrytis cinerea in the microtiter test, wild type; details: turbidity at 620 nm after 7 days; for IC50: 168 h, read-out: Absolute IC50, wild type
Procedure: as §1, §3, §4, §5, §7

[5] = tested on: Botrytis cinerea mutant H108P; assay: Activity against Botrytis cinerea in the microtiter test, mutant H108P; details: for IC50: Botrytis cinerea, MUTANTH108P, 168 h, read-out: Absolute IC50, H108P, Botrytis cinerea mutant H108P, turbidity at 620 nm after 7 days
From the text: as §1, §2, §3, §4, §5, §6, §7

[6] = tested on: Botrytis cinerea mutant Y208H; assay: Activity against Botrytis cinerea in the microtiter test, mutant Y208H; details: for IC50: Botrytis cinerea, MUTANTY208H, 168 h, read-out: Absolute IC50, Y208H, Botrytis cinerea mutant Y208H, turbidity at 620 nm after 7 days
From the text: as §1, §2, §3, §4, §5, §6, §7

[7] = tested on: Sclerotinia sclerotiorum (sensitive, wild-type); assay: Activity against Sclerotinia sclerotiorum in tissue culture plate assay with mycelial plugs, wild type; details: 168 h, % growth after 7 days at 18° C., read-out: Absolute IC50, wild type
Procedure: Fungal strains used: • a) Sclerotinia sclerotiorum (sensitive, wild-type) • b) Mutants of Sclerotinia sclerotiorum
Pure cultures are grown on DOB-agar medium, (3.4 g/l YNB (Becton Dickinson), 10 g/l Ammoniumsulfat, 40 g/l Glucose) for 5-7 days at 18° C. Mycelial plugs (6 mm diame-ter) taken from the margin of the colonies are used as inoculum for the sensitivity test. 500 μl fungicide-amended DOB medium (3.4 g/l YNB (Becton Dickinson), 10 g/l Ammoniumsulfat, 40 g/l Glucose, adjusted to pH 7) are added to each well of 24-well tissue culture plates. Each well is then inoculated with a mycelial plug, with the myce-lium surface up. Two replicate wells are used for each isolate and fungicide concentration. Growth is assed after 7 days incubation at 18° C. in the dark by estimating % growth in the well. IC50-values (concentration of test compound resulting in 50% inhibition of fungal growth) were calculated from the resulting dose-response for each compound and strain.

In the case of `Cc1cc(C2=NCC(C)(C)Oc3ccccc32)cnc1C` [compound 47], the IC50 [1] is reported as 0.02 µg/mL (≈ 0.0713 µM), the IC50 [2] is reported as 0.55 µg/mL (≈ 1.96 µM) and the IC50 [3] is reported as 2.47 µg/mL (≈ 8.81 µM). The IC50 ([4]; Botrytis cinerea) was 0.04 µg/mL (≈ 0.143 µM), the IC50 [5] was 0.83 µg/mL (≈ 2.96 µM) and the IC50 [6] was 1.9 µg/mL (≈ 6.78 µM).

`Cc1cc(C2=NC(C)(C)C(C)(C)Oc3ccccc32)cnc1C(F)F` [compound 49] gave an IC50 [1] of 0.01 µg/mL (≈ 0.029 µM), an IC50 [2] of 0.7 µg/mL (≈ 2.03 µM) and an IC50 [3] of 2.35 µg/mL (≈ 6.82 µM). For the same compound, the IC50 [4] was 0.01 µg/mL (≈ 0.029 µM), the IC50 [5] was 0.32 µg/mL (≈ 0.929 µM) and the IC50 [6] was 0.97 µg/mL (≈ 2.82 µM).

In the case of `Cc1cc(C2=NC(C)(C)COc3ccccc32)cnc1C` [compound 51], the “Relative antifungal activity expressed as IC50, V195F” value ([1]; {}) is reported as “AA AA AA” and the “Relative antifungal activity expressed as IC50, G111V” value ([2]; {}) is reported as “AA AA AA”.

Work on `CC(C)(C)C1(C)N=C(c2cnc3c(F)cccc3c2)c2ccccc2O1` (centres unmarked) [drawing 117, reference compound] yielded an IC50 [1] greater than 31 µg/mL and an IC50 [4] of 0.07 µg/mL (≈ 0.201 µM).

`Cc1cc(C2=NC3(CCC3)Oc3ccccc32)cnc1C` [drawing 125, reference compound] was tested, and the “Absolute IC50, V195F” value ([1]; {}) was 2.99 ppm, the “Absolute IC50, G111V” value ([2]; {}) was 0.25 ppm and the “Absolute IC50, G111E” value ([3]; {}) was 10.94 ppm. The “Absolute IC50, wild type” value [4] was 0.11 ppm, the “Absolute IC50, H108P” value ([5]; {}) was 0.25 ppm and the “Absolute IC50, Y208H” value ([6]; {}) was 1.43 ppm.

For `CC1(c2ccccc2)N=C(c2cnc3c(F)cccc3c2)c2cccc(F)c2O1` (centres unmarked) [drawing 127, reference compound], the IC50 [1] was 15.5 µg/mL (≈ 40.2 µM) and the IC50 ([4]; Botrytis cinerea) was 0.04 µg/mL (≈ 0.104 µM).

For `COc1ccc2c(c1)OC(C)(C)N=C2c1cnc2c(F)cccc2c1` [drawing 129, reference compound], the IC50 [1] was 5.28 µg/mL (≈ 15.7 µM) and the IC50 ([4]; Botrytis cinerea) was 0.01 µg/mL (≈ 0.0297 µM).

In the case of `CCN1c2c(F)cccc2C(c2cnc3c(F)cccc3c2)=NC1(C)C` [drawing 141, reference compound], the IC50 [1] is reported as greater than 31 µg/mL and the IC50 [4] is reported as 0.02 µg/mL (≈ 0.0569 µM).

`CC1(C)N=C(c2cnc3c(F)cccc3c2)c2ccccc2OC1(C)C` [drawing 163, reference compound] gave an IC50 [1] of 2.84 µg/mL (≈ 8.15 µM) and an IC50 ([4]; Botrytis cinerea) of 0.001 µg/mL (≈ 0.00287 µM).

In the case of `CC(C)(C)C1(C)N=C(c2cnc3c(F)cccc3c2)c2ccccc2O1` (centres unmarked) [drawing 166], the IC50 [7] is reported as 0.137 µg/mL (≈ 0.393 µM).

For `CC1(c2ccccc2)N=C(c2cnc3c(F)cccc3c2)c2cccc(F)c2O1` (centres unmarked) [drawing 168], the IC50 [7] was 0.154 µg/mL (≈ 0.399 µM).

In the case of `COc1ccc2c(c1)OC(C)(C)N=C2c1cnc2c(F)cccc2c1` [drawing 170], the IC50 [7] is reported as 0.06 µg/mL (≈ 0.178 µM).

`CCN1c2c(F)cccc2C(c2cnc3c(F)cccc3c2)=NC1(C)C` [drawing 175] gave an IC50 [7] of 0.03 µg/mL (≈ 0.0854 µM).

Compound `CC1(C)N=C(c2cnc3c(F)cccc3c2)c2ccccc2OC1(C)C` [drawing 178] has an IC50 [7] of 2 µg/mL (≈ 5.73 µM).

Work on `Fc1cccc2cc(C3=NC4(CCCC4)Oc4ccccc43)cnc12` [reference compound] yielded an IC50 [1] of 10.9 µg/mL (≈ 32.8 µM) and an IC50 ([4]; Botrytis cinerea) of 0.05 µg/mL (≈ 0.15 µM).

Work on `Fc1cccc2c1OC1(CCC1)N=C2c1cnc2ccccc2c1` [reference compound] yielded an IC50 [1] of 24.1 µg/mL (≈ 75.9 µM), an IC50 [2] of 0.14 µg/mL (≈ 0.44 µM) and an IC50 [3] of 9.48 µg/mL (≈ 29.8 µM). It also gave an IC50 [4] of 0.03 µg/mL (≈ 0.0942 µM), an IC50 [5] of 0.11 µg/mL (≈ 0.346 µM) and an IC50 [6] of 1.59 µg/mL (≈ 4.99 µM).

With `CC1(C)N=C(c2cnc3c(F)cccc3c2)c2cccc(F)c2N1` [reference compound] the IC50 [1] was 4.42 µg/mL (≈ 13.7 µM) and the IC50 ([4]; Botrytis cinerea) was 0.005 µg/mL (≈ 0.0155 µM).

`CC1(C)CN=C(c2cnc3ccccc3c2)c2ccccc2O1` [reference compound] was tested, and the IC50 [1] was 19.5 µg/mL (≈ 64.6 µM) and the IC50 ([4]; Botrytis cinerea) was 0.001 µg/mL (≈ 0.00331 µM).

— patent publication US20260150841A1, “PYRIDINE COMPOUNDS FOR COMBATTING DIHYDROOROTATE-DEHYDROGENASE INHIBITOR-RESISTANT PHYTOPATHOGENIC FUNGI” (priority 2022, published 2026)
